Measured values reported in patent US20120004272A1, “BIOCIDAL COMPOSITION OF 2,6-DIMETHYL-M-DIOXANE-4-OL ACETATE AND METHODS OF USE” (priority 2009, published 2012).

Assays:
[1] = tested on: Pseudomonas aeruginosa (ATCC#15442, ATCC#10145), Enterobacter aerogenes, Escherichia coli, Klebsiella pneumoniae, Staphylococcus aureus, Salmonella …; assay: Preservative efficacy (multi-challenge, 96-deep well) in spinning finish emulsion; type: cell-based; conditions: Day 27, post 4th microbial challenge; ppm active
[2] = tested on: Pseudomonas aeruginosa (ATCC#15442, ATCC#10145), Enterobacter aerogenes, Escherichia coli, Klebsiella pneumoniae, Staphylococcus aureus, Salmonella …; assay: Preservative efficacy (multi-challenge, 96-deep well) in water-based latex paint, pH 7.4; type: cell-based
[3] = Day 15, after four bacterial challenges, ppm active
[4] = Day 20, after four bacterial challenges, ppm active

With `ClC=CC[N+]12CN3CN(CN(C3)C1)C2.[Cl-]` [CTAC] the “CTAC alone (ppm), concentration necessary for ≧6 log10 microbial kill” value [1] was 582 ppm.

`CC1(C)COCN1` [DMO, 4,4-Dimethyloxazolidine] was tested, and the “DMO alone (ppm), concentration required for ≧4 log10 microbial kill” value [2, 3] was 308 ppm, the “log10 viable microorganisms, DMO alone score” value ([2]; Day 15, DMO 91 ppm) was 8 log10 and the “log10 viable microorganisms, DMO alone score” value ([2]; Day 15, DMO 137 ppm) was 7 log10. The “log10 viable microorganisms, DMO alone score” value ([2]; Day 15, DMO 205 ppm) was 6 log10, the “log10 viable microorganisms, DMO alone score” value ([2]; Day 15, DMO 308 ppm) was 0 log10 and the “log10 viable microorganisms, DMO alone score” value ([2]; Day 15, DMO 463 ppm) was 0 log10. The “log10 viable microorganisms, DMO alone score” value ([2]; Day 15, DMO 693 ppm) was 0 log10, the “log10 viable microorganisms, DMO alone score” value ([2]; Day 15, DMO 1040 ppm) was 0 log10 and the “log10 viable microorganisms, DMO alone score” value ([2]; Day 15, DMO 1560 ppm) was 0 log10. For the same molecule, the “DMO alone (ppm), concentration necessary for ≧6 log10 microbial kill” value [1] was 355 ppm.

For `CC(=O)OC1CC(C)OC(C)O1` (stereo not shown) [DMX, 2,6-Dimethyl-m-dioxan-4-ol acetate], the “DMX alone (ppm), concentration required for ≧4 log10 microbial kill” value [2, 3] was 1740 ppm, the “log10 viable microorganisms, DMX alone” value ([2]; Day 15, DMX 102 ppm) was 7 log10 and the “log10 viable microorganisms, DMX alone” value ([2]; Day 15, DMX 153 ppm) was 7 log10. The “log10 viable microorganisms, DMX alone” value ([2]; Day 15, DMX 229 ppm) was 8 log10, the “log10 viable microorganisms, DMX alone” value ([2]; Day 15, DMX 344 ppm) was 8 log10 and the “log10 viable microorganisms, DMX alone” value ([2]; Day 15, DMX 516 ppm) was 7 log10. For the same molecule, the “log10 viable microorganisms, DMX alone” value ([2]; Day 15, DMX 773 ppm) was 8 log10, the “log10 viable microorganisms, DMX alone” value ([2]; Day 15, DMX 1160 ppm) was 5 log10 and the “log10 viable microorganisms, DMX alone” value ([2]; Day 15, DMX 1740 ppm) was 0 log10. For the same molecule, the “DMX alone (ppm), concentration required for ≧4 log10 microbial kill” value [2, 4] was 1740 ppm, the “log10 viable microorganisms, DMX alone” value ([2]; Day 20, DMX 102 ppm) was 8 log10 and the “log10 viable microorganisms, DMX alone” value ([2]; Day 20, DMX 153 ppm) was 8 log10. The “log10 viable microorganisms, DMX alone” value ([2]; Day 20, DMX 229 ppm) was 8 log10, the “log10 viable microorganisms, DMX alone” value ([2]; Day 20, DMX 344 ppm) was 8 log10 and the “log10 viable microorganisms, DMX alone” value ([2]; Day 20, DMX 516 ppm) was 8 log10. For the same molecule, the “log10 viable microorganisms, DMX alone” value ([2]; Day 20, DMX 773 ppm) was 8 log10, the “log10 viable microorganisms, DMX alone” value ([2]; Day 20, DMX 1160 ppm) was 8 log10 and the “log10 viable microorganisms, DMX alone” value ([2]; Day 20, DMX 1740 ppm) was 4 log10. The “DMX alone (ppm), concentration necessary for ≧6 log10 microbial kill” value [1] was 1339 ppm.

With `CCC12COCN1COC2` [EBCO, 7-Ethyl-bicyclooxazolidine] the “EBCO alone (ppm), concentration required for ≧4 log10 microbial kill” value [2, 4] was 1920 ppm, the “log10 viable microorganisms, EBCO alone score” value ([2]; Day 20, EBCO 112 ppm) was 8 log10 and the “log10 viable microorganisms, EBCO alone score” value ([2]; Day 20, EBCO 169 ppm) was 8 log10. The “log10 viable microorganisms, EBCO alone score” value ([2]; Day 20, EBCO 252 ppm) was 8 log10, the “log10 viable microorganisms, EBCO alone score” value ([2]; Day 20, EBCO 379 ppm) was 7 log10 and the “log10 viable microorganisms, EBCO alone score” value ([2]; Day 20, EBCO 569 ppm) was 7 log10. The “log10 viable microorganisms, EBCO alone score” value ([2]; Day 20, EBCO 853 ppm) was 8 log10, the “log10 viable microorganisms, EBCO alone score” value ([2]; Day 20, EBCO 1280 ppm) was 7 log10 and the “log10 viable microorganisms, EBCO alone score” value ([2]; Day 20, EBCO 1920 ppm) was 0 log10.

In the case of `O=[N+]([O-])C(CO)(CO)CO` [TN, 2-Hydroxymethyl-2-nitro-1,3-propanediol], the “TN alone (ppm), concentration necessary for ≧6 log10 microbial kill” value [1] is reported as 592 ppm.
